Experimental data: PMC11801715, “Activating PKC-ε induces HIV expression with improved tolerability” (PLOS Pathogens, 2025)

Legend:
PKC-θ = PKC-θ (Homo sapiens, UniProt Q04759); assay: Cell fractionation and western blotting in CD4+ T cells; assay type: cell-based; conditions: 1 hour
Experimental: (§1) CD4^+ T cells treated with C-232A for 1 hour in a concentration-dependent manner were separated into cytoplasmic and membrane protein fractions using a cell fractionation kit (Cell Signaling Technology, catalog 9038) and protein concentrations quantified using a Pierce BCA assay (Thermo Fisher Scientific, catalog 23227). 4–6 μg of fractionated total protein lysate was fractionated on SDS-PAGE gel using Peggy Sue (Protein Simple). The resulting area under the curve was normalized against β-actin.
(§2) (A) Western blot of PKC isoforms θ, α, β2, and β1 in cytoplasmic and membrane fractions of CD4^+ T cells treated with C-232A. […] Area under the peak generated by western blot analysis of membrane-associated PKC isoforms after treatment and plotted using GraphPad software. AUC plots were used to generate EC50 values (D). (PNG)

[1] = system: classical isoforms PKC-α, PKC-β1, PKC-β2; assay: as above; assay type: cell-based; conditions: 1 hour
Experimental: as §1, §2

rhesus macaques = assay: In vivo monkey study: tolerability, clinical pathology, histopathology; design: species or system rhesus macaque
Experimental: (§3) Male rhesus macaque monkeys (young adult to adult) were sourced from the Covance stock colony for conduct of in vivo studies at Covance Laboratories Inc. (Madison, Wisconsin, USA). Monkeys were administered a single dose of vehicle control (n = 3), 0.03, 0.1, 0.3, or 1 mg/kg of C-232A (n = 1) by intravenous infusion over 30 minutes using a sentinel approach. An additional 2 male monkeys were administered 0.3 mg/kg C232A after it was determined that this was the maximum tolerated dose level. Blood samples were collected through 24 hours postdose. Samples for PK (for measurement of C-232A concentration) and cytokine analysis were processed to plasma and shipped to Gilead Sciences. Activation of CD4^+ T cells was assessed by measuring CD69 expression levels in whole blood by flow cytometry (Covance Laboratories). Samples for clinical pathology were analyzed at Covance Laboratories for hematology, coagulation, and clinical chemistry panels. At unscheduled necropsy (1 mg/kg C-232A), tissues were preserved in 10% neutral-buffered formalin, embedded in paraffin, and processed to slides for staining with hematoxylin and eosin. Tissues were then evaluated independently (Experimental Pathology Laboratories, Inc).

[2] = as above; design: species or system rhesus macaque; conditions: male, rhesus monkey, in vivo; single IV infusion; read-out: maximum tolerated dose
Experimental: as §3

[3] = system: cellular p24 in CD4+ T cells; assay: Ex vivo HIV-Flow assay in CD4+ T cells; assay type: cell-based, HIV-1; conditions: 500 nM in HIV-Flow, 72 hours
Experimental: Isolated CD4^+ T cells from ART-suppressed people with HIV were cultured in RPMI medium containing 10% FBS, 100 nM efavirenz, and 1 μM tenofovir alafenamide at 2 million cells per mL. These cells were subsequently stimulated with DMSO (vehicle control), 500 nM PKC agonist C-233, or 162 nM PMA and 1 µg/mL ionomycin. The cells were cultured at 37°C, 5% CO2 for 3 days. After 3 days, the cells were washed with PBS, stained with Live/Dead Fixable Aqua for 25 minutes at 4°C, followed by 2% FBS in PBS wash. Cells were then fixed and permeabilized in FoxP3 Fix/Perm buffer (E-Bioscience, catalog 005523) for 45 minutes at 4°C, followed by FoxP3 Perm buffer wash. The samples were stained with 2 different anti-p24 antibodies, (KC57-PE/ Beckman Coulter, 6604667, and a28B7-APC Medimabs, MM-0289-APC) diluted 1:1000 in FoxP3 Perm buffer for 45 minutes at 4°C, washed with FoxP3 Perm buffer, and resuspended in PBS. The samples were run on the BD LSR Fortessa II flow cytometer. The data were analyzed using FlowJo version 10.7.1.
Supplementary file ppat.1012874.s012.png: S9 Fig C-233 induces HIV activation in CD4^+ T cells from ART-suppressed people with HIV. […]

[4] = system: CD4+ T cells from ART-suppressed people with HIV; assay: Cell viability (Cell Titer Glo); assay type: cell-based, human; conditions: 72 hours, doses that activated HIV RNA
Experimental: Supplementary file ppat.1012874.s011.png: S8 Fig Effect of C-233 on cell viability. CD4^+ T cells from ART-suppressed people with HIV were treated with the indicated C-233 concentrations for 72 hours. Cell viability was assessed using Promega Cell Titer Glo according to manufacturer’s instructions. Bars indicate the means and lines indicate standard deviation from 4 donors, each tested with 8 replicates. (PNG)

Sequence of PKC-θ (Q04759 whole entry): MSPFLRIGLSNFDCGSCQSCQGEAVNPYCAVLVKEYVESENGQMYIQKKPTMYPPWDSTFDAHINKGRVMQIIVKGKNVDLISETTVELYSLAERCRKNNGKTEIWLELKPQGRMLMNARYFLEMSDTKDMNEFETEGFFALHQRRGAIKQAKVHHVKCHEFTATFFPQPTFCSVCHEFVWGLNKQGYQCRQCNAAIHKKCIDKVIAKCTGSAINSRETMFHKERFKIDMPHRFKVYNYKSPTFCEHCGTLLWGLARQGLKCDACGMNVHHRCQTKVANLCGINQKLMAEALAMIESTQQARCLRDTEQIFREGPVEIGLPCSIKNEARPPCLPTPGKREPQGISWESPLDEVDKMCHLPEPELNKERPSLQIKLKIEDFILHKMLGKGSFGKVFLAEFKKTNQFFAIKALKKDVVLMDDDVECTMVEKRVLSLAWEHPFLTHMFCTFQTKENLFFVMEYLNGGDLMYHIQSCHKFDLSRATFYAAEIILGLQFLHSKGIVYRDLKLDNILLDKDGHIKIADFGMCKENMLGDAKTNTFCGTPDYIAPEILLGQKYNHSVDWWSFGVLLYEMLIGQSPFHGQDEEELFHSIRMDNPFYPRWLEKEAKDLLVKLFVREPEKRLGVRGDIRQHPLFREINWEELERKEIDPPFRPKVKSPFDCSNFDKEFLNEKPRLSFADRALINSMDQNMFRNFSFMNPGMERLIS

SMILES | translocation of PKC-θ from cytoplasm to cell membrane (PKC-θ) | translocation of classical isoforms α, β1, β2 [1] | circulating fibrinogen (rhesus macaques; 1 mg/kg) | coagulation times (rhesus macaques; 1 mg/kg) | histopathology (rhesus macaques; 1 mg/kg) | outcome (severe clinical signs) (rhesus macaques; 1 mg/kg, single IV infusion, 1 monkey) | tolerability (rhesus macaques; 0.03, 0.1, and 0.3 mg/kg, single IV infusion) | circulating platelet counts (rhesus macaques; higher doses) | mean platelet volume (rhesus macaques; higher doses) [fL] | MTD [2] [mg/kg] | HIV protein production (supernatant p24 and cellular p24 by HIV-Flow) [3] | cell viability [4]
Cc1ccc(C#Cc2ccc3oc(CC(C)(C)C(=O)OCC4(CO)CC(=CCC(CC(C)C)CC(C)C)C(=O)O4)cc3c2)cc1 (stereo not drawn) [C-232A] | translocated PKC-θ from the cytoplasm to the cell membrane in a dose-dependent manner | did not translocate classical isoforms α, β1, or β2 | decreased | prolonged | hemorrhage in the lung and adrenal gland | euthanized 8 hours postdose | well tolerated | < 100,000 platelets/µL | > 15 | 0.3 | – | –
Cc1ccc(C#Cc2ccc(C(=O)OCC3(CO)Cc4c(-c5ccccc5)ccnc4O3)cc2)cc1 (stereo not drawn) [C-233] | – | – | – | – | – | – | – | – | – | – | activated production of viral protein | without impairing viability
